Source: patent US20120232038A1, “CRYSTALLINE FORMS OF (3R, 3AS, 6AR) - HEXAHYDROFURO [2,3-B] FURAN-3-YL (1S,2R) - (1-{4-[ (DIETHOXYPHOSPHORYL) METHOXY] PHENY1}-3-HYDROXY-4- [4-METHOXY-N- (2-METHYLPROPYL) BENZENESUL - FONAMIDO] BUTAN-2-YL) CARBAMATE” (Gilead Sciences, Inc., priority 2009, published 2012)

Key:
Type in all cases: physicochemical
[1] = Dynamic vapor sorption of Compound I crystalline Form I
Text: (§1) Other benefits that crystalline Form I offers include but are not limited to purification and isolation of the crystalline form with respect to the solution and facilitation of storage and handling during the formulation development and manufacturing of drug product.

[2] = Form stability on extended exposure to water (water slurry, XRPD); details: slurried in water, 2 week sample, XRPD (FIG. 6)
Protocol: Approximately 15-50 mg of Compound I are weighed and transferred to each of fifteen vials each equipped with a mini magnetic stir bar. The starting material used for this experiment is an amorphous solid based on the X-ray powder diffraction (XRPD) pattern (See FIG. 1). To each vial is added 1 mL of various solvents. The slurries are allowed to stir for two weeks at room temperature (˜22° C.). XRPD characterization of the excess solids were performed at ˜1 week and ˜2 week time points. A sample of 300 μL of the suspension is removed from each vial, transferred to a centrifuge filter (Costar, 0.45 micron) and centrifuged at 1000 rpm for 2 minutes. Solids in the wet cake form are analyzed using XRPD analysis (PANalytical X'Pert PRO X-ray powder diffractometer). This diffractometer uses Cu-Ka radiation and it operates under reflection mode. Scan range is from 2 to 40 degree 2 theta. After air drying the small sample, (XRPD) analysis is performed again to monitor any change in the diffraction pattern between the wet and dry material. TGA is run on the saturated solution to determine the solubility of the equilibrating solids in the solvent. […]

[3] = Moisture uptake of Compound I amorphous material at room temperature under controlled relative humidity
Text: as §1

## CCOP(=O)(COc1ccc(CC(NC(=O)OC2CO[C@H]3OCC[C@@H]23)[C@H](O)CN(CC(C)C)S(=O)(=O)c2ccc(OC)cc2)cc1)OCC (stereo partly drawn) [Form I]
[1]
  hygroscopicity: not hygroscopic
[1]; 90% relative humidity
  water absorbed: 0.4%
[2]
  solid form after extended exposure to water: remains as the same form

## CCOP(=O)(COc1ccc(CC(NC(=O)OC2CO[C@H]3OCC[C@@H]23)[C@H](O)CN(CC(C)C)S(=O)(=O)c2ccc(OC)cc2)cc1)OCC (stereo partly drawn) [Compound I amorphous material]
[3]; 75% Relative Humidity
  Weight gain after 5 days: 0.6%
  Weight gain after 11 days: 1.0%
[3]; 97% Relative Humidity
  Weight gain after 5 days: 3.8%
